Like-named read-outs stand apart in the source and are kept apart here.

The text below walks through data of patent publication US9988381B2, “Five-member-heterocycle fused pyridine compounds, method of producing the same, and use thereof” (SHANGHAI INSTITUTE OF MATERIA MEDICA, CHINESE ACADEMY OF …, priority 2013, dated 2018).

The target of assay [1] is T1, c-Met kinase domain recombinant protein (Homo sapiens, UniProt P08581).
T1 construct: 50 μL diluted solution of c-Met kinase domain recombinant protein in reaction buffer was added to initiate the reaction
Briefly: biochemical. The settings on record: read-out: Inhibition rate at 10 μM (%). As to the method:
Enzymatic reaction substrate Poly(Glu,Tyr)4:1 was diluted to 20 μg/mL in potassium ion free PBS (10 mM sodium phosphate buffer, 150 mM NaCl, pH7.2-7.4), microplate was coated with this solution at 125 μL per well, and reacted at 37° C. for 12-16 hours. Liquid in wells was discarded. Plate washing: the plate was washed 3 times for 5 minutes each with 200 μL per well of T-PBS (potassium ion free PBS containing 0.1% Tween-20).
Into each well was added 49 μL diluted ATP solution in reaction buffer (50 mM HEPES pH 7.4, 50 mM MgCl2, 0.5 mM MnCl2, 0.2 mM Na3VO4, 1 mM DTT), and 1 μL per well of compound to be tested was added, then 50 μL diluted solution of c-Met kinase domain recombinant protein in reaction buffer was added to initiate the reaction, each test was setup with two wells of ATP free control. Reaction was performed in a 37° C. shaker (100 rpm) for 1 hour. Liquid in the wells was discarded, and the plate was washed three times with T-PBS.
Antibody PY99 was added at 100 μL per well (the antibody was 1:500 diluted in T-PBS containing 5 mg/mL BSA), incubated in a 37° C. shaker for 0.5 hour. Liquid in the wells was discarded, and the plate was washed three times with T-PBS.
Goat anti mouse secondary antibody labeled with horseradish peroxidase was added at 100 μL per well (the antibody was 1:2000 diluted in T-PBS containing 5 mg/mL BSA), incubated in a 37° C. shaker for 0.5 hour. Liquid in the wells was discarded, and the plate was washed three times with T-PBS.
Reaction was terminated by adding 50 μL per well of 2M H2SO4, the plate was read at 490 nm using a VERSAmax microplate reader with tunable wavelength.
(§1) Inhibition rate of the sample was calculated using the following equation: […]

Assay [2] concerns the target T1, c-Met kinase domain recombinant protein. The assay can be described thus: biochemical. To be noted: for inhibition at 10 µM: read-out: Average inhibition rate at 10 μM (%); for inhibition at 0.1 µM: read-out: Average inhibition rate at 0.1 μM (%); for inhibition at 1 µM: read-out: Average inhibition rate at 1 μM (%). How it is done:
Enzymatic reaction substrate Poly(Glu,Tyr)4:1 was diluted to 20 μg/mL in potassium ion free PBS (10 mM sodium phosphate buffer, 150 mM NaCl, pH7.2-7.4), microplate was coated with this solution at 125 μL per well, and reacted at 37° C. for 12-16 hours. Liquid in wells was discarded, then the plate was washed 3 times for 5 minutes each with 200 μL per well of T-PBS (PBS containing 0.1% Tween-20).
Into each well was added 50 μL diluted ATP solution in reaction buffer (50 mM HEPES pH 7.4, 50 mM MgCl2, 0.5 mM MnCl2, 0.2 mM Na3VO4, 1 mM DTT), the final concentration was 5 μM. Test compound was diluted in DMSO to proper concentration, added at 1 μL per well or corresponding level of DMSO (negative control wells), then 49 μL diluted solution of c-Met kinase domain recombinant protein in reaction buffer was added to initiate the reaction, each test was setup with two wells of ATP free control. Reaction was performed in a 37° C. shaker (100 rpm) for 1 hour. The plate was washed three times with T-PBS. Primary antibody PY99 diluted solution was added at 100 μL per well, incubated in a 37° C. shaker for 0.5 hour.
The plate was washed three times with T-PBS. Goat anti mouse secondary antibody labeled with horseradish peroxidase was added at 100 μL per well, incubated in a 37° C. shaker for 0.5 hour. The plate was washed three times with T-PBS. […] Reaction was terminated by adding 50 μL per well of 2M H2SO4, the plate was read at 490 nm using a SPECTRA MAX 190 microplate reader with tunable wavelength.
as §1
IC50 was calculated by fitting the data for a four parameter fit using inhibition curve.

T1 sequence (P08581 1078-1345 limits assumed): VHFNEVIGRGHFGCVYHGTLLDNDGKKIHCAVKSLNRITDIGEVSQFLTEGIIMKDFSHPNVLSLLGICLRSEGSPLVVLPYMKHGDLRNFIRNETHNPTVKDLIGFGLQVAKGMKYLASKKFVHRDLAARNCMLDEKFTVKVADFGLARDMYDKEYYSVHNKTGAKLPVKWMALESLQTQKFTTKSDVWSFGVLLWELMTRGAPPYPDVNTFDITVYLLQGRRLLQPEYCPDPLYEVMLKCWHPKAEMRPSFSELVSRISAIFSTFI

`Cn1cc(-c2cnc3cnn(S(=O)(=O)c4ccccc4F)c3c2)cn1` [Compound 6, 1-(2-fluorobenzenesulfonyl)-6-[(1-methyl)-4-pyrazolyl]-1-H-pyrazolo[4,3-b]pyridine]: the inhibition at 10 µM in assay [1] and in assay [2] was 34.4% each time.

Take `Cn1cc(-c2cnc3cnn(S(=O)(=O)c4ccc(F)cc4)c3c2)cn1` [Compound 7, 1-(4-fluorobenzenesulfonyl)-6-[(1-methyl)-4-pyrazolyl]-1-H-pyrazolo[4,3-b]pyridine]: the inhibition at 10 µM in assay [1] and in assay [2] was 40.7% each time.

Turning to `Cn1cc(-c2cnc3cnn(S(=O)(=O)c4ccccc4C#N)c3c2)cn1` [Compound 8, 1-(2-cyanobenzenesulfonyl)-6-[(1-methyl)-4-pyrazolyl]-1-H-pyrazolo[4,3-b]pyridine], in assay [1], the inhibition at 10 µM was 72.4%. Moreover, in assay [2], the inhibition at 0.1 µM is 9.2%, the inhibition at 1 µM is 51.6% and the inhibition at 10 µM came to 72.4%.

Turning to `Cn1cc(-c2cnc3cnn(S(=O)(=O)c4ccc([N+](=O)[O-])cc4)c3c2)cn1` [Compound 9, 1-(4-nitrobenzenesulfonyl)-6-[(1-methyl)-4-pyrazolyl]-1-H-pyrazolo[4,3-b]pyridine], the inhibition at 10 µM in assay [1] and in assay [2] was 22% each time.

Regarding `COc1ccc(S(=O)(=O)n2ncc3ncc(-c4cnn(C)c4)cc32)cc1OC` [Compound 10, 1-(3,4-dimethoxybenzenesulfonyl)-6-[(1-methyl)-4-pyrazolyl]-1-H-pyrazolo[4,3-b]pyridine], the inhibition at 10 µM in assay [1] and in assay [2] was 37.9% throughout.

Consider `Cc1noc(C)c1S(=O)(=O)n1ncc2ncc(-c3cnn(C)c3)cc21` [Compound 11, 1-(3,5-dimethylisoxazolesulfonyl)-6-[(1-methyl)-4-pyrazolyl]-1-H-pyrazolo[4,3-b]pyridine], for which the inhibition at 10 µM in assay [1] and in assay [2] was 48.6% in each case.

Consider `Cn1cc(-c2cnc3cnn(S(=O)(=O)c4ccc(F)cc4F)c3c2)cn1` [Compound 12, 1-(2,4-difluorobenzenesulfonyl)-6-[(1-methyl)-4-pyrazolyl]-1-H-pyrazolo[4,3-b]pyridine], for which the inhibition at 10 µM in assay [1] and in assay [2] was 37.5% in each case.

For the compound `CC(=O)c1ccc(S(=O)(=O)n2ncc3ncc(-c4cnn(C)c4)cc32)cc1` [Compound 13, 1-(4-acetylbenzenesulfonyl)-6-[(1-methyl)-4-pyrazolyl]-1-H-pyrazolo[4,3-b]pyridine], in assay [1], the inhibition at 10 µM is 52.6%. Further, in assay [2], the inhibition at 0.1 µM was determined as 28.5%, the inhibition at 1 µM worked out at 45.3% and the inhibition at 10 µM was determined as 52.6%.

Consider `Cn1cc(-c2cnc3cnn(S(=O)(=O)c4ccccc4C(F)(F)F)c3c2)cn1` [Compound 14, 1-(2-trifluoromethylbenzenesulfonyl)-6-[(1-methyl)-4-pyrazolyl]-1-H-pyrazolo[4,3-b]pyridine], for which the inhibition at 10 µM in assay [1] is 74.3%. Further, in assay [2], the inhibition at 0.1 µM is 39.9%, the inhibition at 1 µM came to 54.7% and the inhibition at 10 µM is 74.3%.

`Cn1cc(-c2cnc3cnn(S(=O)(=O)c4ccc(C(F)(F)F)cc4)c3c2)cn1` [Compound 15, 1-(4-trifluoromethylbenzenesulfonyl)-6-[(1-methyl)-4-pyrazolyl]-1-H-pyrazolo[4,3-b]pyridine]: the inhibition at 10 µM in assay [1] and in assay [2] was 40.6% each time.

Consider `Cn1cc(-c2cnc3cnn(S(=O)(=O)c4cccc(C(F)(F)F)c4)c3c2)cn1` [Compound 16, 1-(3-trifluoromethylbenzenesulfonyl)-6-[(1-methyl)-4-pyrazolyl]-1-H-pyrazolo[4,3-b]pyridine], for which, in assay [1], the inhibition at 10 µM came out at 73.2%. In addition, in assay [2], the inhibition at 0.1 µM was determined as 25.2%, the inhibition at 1 µM came to 56.1% and the inhibition at 10 µM came out at 73.2%.

Take `COc1ccc(S(=O)(=O)n2ncc3ncc(-c4cnn(C)c4)cc32)cc1` [Compound 17, 1-(4-methoxybenzenesulfonyl)-6-[(1-methyl)-4-pyrazolyl]-1-H-pyrazolo[4,3-b]pyridine]: the inhibition at 10 µM in assay [1] and in assay [2] was 49.9% each time.

As for `Cn1cc(-c2cnc3cnn(S(=O)(=O)c4cnn5cccnc45)c3c2)cn1` [Example 22, 1-(pyrazolo[1,5-a]pyrimidine-3-sulfonyl)-6-[(1-methyl)-4-pyrazolyl]-1-H-pyrazolo[4,3-b]pyridine], the inhibition at 10 µM in assay [1] was 69.5%. In assay [2], the IC50 was determined as 39.7 ± 6.3 nM, the inhibition at 0.1 µM was determined as 24.9%, the inhibition at 1 µM is 58.7% and the inhibition at 10 µM is 69.5%.

On to `Cn1cc(-c2cnc3cnn(S(=O)(=O)c4cnc5ncccn45)c3c2)cn1` [Example 23, 1-(imidazo[1,2-a]pyrimidine-3-sulfonyl)-6-[(1-methyl)-4-pyrazolyl]-1-H-pyrazolo[4,3-b]pyridine], for which, in assay [1], the inhibition at 10 µM was determined as 65.1%. Further, in assay [2], the IC50 worked out at 3.7 ± 1.4 nM, the inhibition at 0.1 µM was 26.9%, the inhibition at 1 µM turned out to be 52.7% and the inhibition at 10 µM is 65.1%.

In the case of `Cn1cc(-c2cnc3cnn(S(=O)(=O)c4cnc5ccc(C(F)(F)F)cn45)c3c2)cn1` [Example 26, 1-[(6-trifluoromethyl-imidazo[1,2-a]pyridine)-3-sulfonyl]-6-[(1-methyl)-4-pyrazolyl]-1-H-pyrazolo[4,3-b]pyridine], the inhibition at 10 µM in assay [1] is 65.2%. Further, in assay [2], the IC50 was found to be 33.9 ± 6.9 nM, the inhibition at 0.1 µM amounted to 60%, the inhibition at 1 µM came out at 63.8% and the inhibition at 10 µM came to 65.2%.

Take `O=S(=O)(c1cnc2ccccn12)n1ncc2ncc(-c3cccnc3)cc21` [Example 30, 1-(imidazo[1,2-a]pyridine-3-sulfonyl)-6-(3-pyridinyl)-1-H-pyrazolo[4,3-b]pyridine]: the inhibition at 10 µM in assay [1] was determined as 71%. Moreover, in assay [2], the inhibition at 0.1 µM was determined as 48.3%, the inhibition at 1 µM was 59.7% and the inhibition at 10 µM is 71%.

`O=S(=O)(c1cnc2ccccn12)n1ncc2ncc(-c3ccoc3)cc21` [Example 31, 1-(imidazo[1,2-a]pyridine-3-sulfonyl)-6-(3-furanyl)-1-H-pyrazolo[4,3-b]pyridine]: the inhibition at 10 µM in assay [1] was 69%. Further, in assay [2], the inhibition at 0.1 µM stood at 59%, the inhibition at 1 µM was 64.1% and the inhibition at 10 µM came to 69%.

Regarding `O=S(=O)(c1cnc2ccccn12)n1ncc2ncc(-c3ccc(C(F)(F)F)cc3)cc21` [Example 32, 1-(imidazo[1,2-a]pyridine-3-sulfonyl)-6-(4-trifluoromethylphenyl)-1-H-pyrazolo[4,3-b]pyridine], the inhibition at 10 µM in assay [1] came out at 64.2%. Besides, in assay [2], the inhibition at 0.1 µM is 52.9%, the inhibition at 1 µM stood at 52% and the inhibition at 10 µM is 64.2%.

Regarding `O=S(=O)(c1cnc2ccccn12)n1ncc2ncc(-c3ccc4ccccc4c3)cc21` [Example 33, 1-(imidazo[1,2-a]pyridine-3-sulfonyl)-6-(2-naphthyl)-1-H-pyrazolo[4,3-b]pyridine], the inhibition at 10 µM in assay [1] worked out at 53.7%. In assay [2], the inhibition at 0.1 µM came out at 39.9%, the inhibition at 1 µM was determined as 47.3% and the inhibition at 10 µM was found to be 53.7%.

With `CS(=O)(=O)Nc1ccc(-c2cnc3cnn(S(=O)(=O)c4cnc5ccccn45)c3c2)cc1` [Example 34, 1-(imidazo[1,2-a]pyridine-3-sulfonyl)-6-(4-methylsulfamidophenyl)-1-H-pyrazolo[4,3-b]pyridine], the inhibition at 10 µM in assay [1] stood at 61.3%. Moreover, in assay [2], the inhibition at 0.1 µM stood at 31.3%, the inhibition at 1 µM is 49.3% and the inhibition at 10 µM was 61.3%.
